Results on 27 compounds are retold here after patent US20250262170A1, “COMBINATIONS OF BETA 2-ADRENERGIC RECEPTOR AGONISTS AND BETA 3-ADRENERGIC RECEPTOR AGONISTS, AND MEDICAL USES THEREOF” (ATROGI AB, priority 2022, published 2025).

Molecules are shown by their SMILES.

T1 sequence (P13945 whole entry): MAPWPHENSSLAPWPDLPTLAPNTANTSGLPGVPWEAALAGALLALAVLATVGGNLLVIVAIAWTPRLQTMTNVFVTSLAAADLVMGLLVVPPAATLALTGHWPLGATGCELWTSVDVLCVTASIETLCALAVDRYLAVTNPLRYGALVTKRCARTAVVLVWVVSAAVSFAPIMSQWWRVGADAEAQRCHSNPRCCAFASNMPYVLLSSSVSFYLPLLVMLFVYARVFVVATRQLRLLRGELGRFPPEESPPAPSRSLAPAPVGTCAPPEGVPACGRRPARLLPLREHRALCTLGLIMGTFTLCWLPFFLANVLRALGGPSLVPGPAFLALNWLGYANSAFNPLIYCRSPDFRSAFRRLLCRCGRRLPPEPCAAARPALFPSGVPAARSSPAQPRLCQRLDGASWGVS

This experiment addresses T1, human β3-adrenergic receptor (Homo sapiens, UniProt P13945).
T1 construct: expressed in transfected cells
Kind of experiment: cAMP levels in CHO-K1 cells expressing the human β3-adrenergic receptor. It is filed as cell-based. The settings on record: CHO-K1, 0.25 h, 15 min, read-out: Activity (intracellular cAMP compared to that of isoproterenol). On the procedure: CHO-K1 cells stably expressing the human β3-adrenergic receptors were serum-starved overnight and stimulated with an agonist, final concentration 1×10^−5 M, for 15 min in stimulation buffer (HBSS supplemented with 1% BSA, 5 mM HEPES and 1 mM IBMX, pH 7.4) The medium was then aspirated and to end the reaction, 100 μL of 95% EtOH was added to each well of the 24-well plate and cells were kept at −20° C. overnight. The next day EtOH was allowed to evaporate and 250 μL of lysis buffer (1% BSA, 5 mM HEPES and 0.3% Tween-20, pH 7.4) was added to each well. The plate was kept at −80° C. for 30 min and thawed in room temperature. Intracellular cAMP levels were detected using an alpha screen cAMP kit (6760635D from Perkin Elmer). The activity for each compound is compared to that of isoproterenol.
Background: Cyclic AMP is a second messenger, typically raised through Gs and lowered through Gi signalling.
As to `CO[C@H]1CC[C@@H](CC(C)(C)NC[C@H](O)c2cccc(F)c2)CC1` [Compound 53, (R)-1-(3-fluorophenyl)-2-((1-((cis)-4-methoxycyclohexyl)-2-methylpropan-2-yl)-amino)ethan-1-ol], the Emax at 10 µM lay within 50 to 75%. In the case of `CC(C)(C[C@H]1CC[C@H](S(N)(=O)=O)CC1)NC[C@H](O)c1cccc(F)c1` [Compound 22, (trans)-4-(2-(((R)-2-(3-fluorophenyl)-2-hydroxy-ethyl)amino)-2-methyl-propyl)cyclohexane-1-sulfonamide], the Emax at 10 µM is > 75%. Consider `O[C@H](c1cccc(F)c1)C12CCC(Cc3ccccc3)(CC1)N2` [Compound 43, (R)-(4-benzyl-7-azabicyclo-[2.2.1]heptan-1-yl)(3-fluoro-phenyl)methanol], for which the Emax at 10 µM lay in the range of 50 to 75%. `CO[C@H]1CC[C@H](C[C@@H]2CC[C@H]([C@H](O)c3cccc(F)c3F)N2)CC1` [Compound 6, (R)-(2,3-difluorophenyl)-((2R,5S)-5-(((trans)-4-methoxycyclohexyl)methyl)-pyrrolidin-2-yl)methanol]: the Emax at 10 µM was > 75%. The same measure for `CC(C)(CC[C@H]1CC[C@H](O)CC1)NC[C@H](O)c1ccccc1F` [Compound 51, (trans)-4-(3-(((R)-2-(2-fluorophenyl)-2-hydroxy-ethyl)amino)-3-methylbutyl)-cyclohexan-1-ol]: > 75%; for `CCCCNC[C@H](O)c1ccccc1F` [Compound 64, (R)-2-(butylamino)-1-(2-fluorophenyl)ethan-1-ol]: > 75%; for `CC(C)(C)NC[C@H](O)c1cccc(N)c1F` [Compound 61, (R)-1-(3-amino-2-fluoro-phenyl)-2-(tert-butylamino)-ethan-1-o]: > 75%. The same measure for `CC1(NC[C@H](O)c2cccc(O)c2)CCC1` [Compound 62, (R)-3-(1-hydroxy-2-((1-methylcyclobutyl)amino)-ethyl)phenol]: > 75%. As to `CO[C@H]1CC[C@H](CC(C)(C)NC[C@H](O)c2ccc(F)c(N)c2F)CC1` [Compound 37, (R)-1-(3-amino-2,4-difluoro-phenyl)-2-((1-((trans)-4-methoxycyclohexyl)-2-methylpropan-2-yl)amino)-ethan-1-ol], the Emax at 10 µM was > 75%. As for `CCCCS(=O)(=O)N[C@H]1CC[C@@H](CC(C)(C)NC[C@H](O)c2cccc(F)c2)CC1` [Compound 12], the Emax at 10 µM is > 75%. For `CC(C)CS(=O)(=O)N[C@H]1CC[C@@H](CC(C)(C)NC[C@H](O)c2cccc(F)c2)CC1` [Compound 16, N-((cis)-4-(2-(((R)-2-(3-fluorophenyl)-2-hydroxy-ethyl)amino)-2-methyl-propyl)cyclohexyl)-2-methyl-propane-1-sulfonamide], the Emax at 10 µM was > 75%. Next, `CC1(NC[C@H](O)c2cccc(F)c2)CC1` [Compound 63, (R)-1-(3-fluorophenyl)-2-((1-methylcyclopropyl)amino)-ethan-1-ol]: 50 to 75%.

Regarding `CC12CC(C1)[C@H]([C@H](O)c1cccc(F)c1)N2` [Compound 55, (R)-(3-fluorophenyl)((R)-1-methyl-2-azabicyclo[2.1.1]-hexan-3-yl)methanol], the Emax at 10 µM is 50 to 75%.

In the case of `CC(C)(C)NC[C@H](O)c1ccc(F)c(N)c1F` [Compound 59, (R)-1-(3-amino-2,4-difluoro-phenyl)-2-(tert-butylamino)-ethan-1-ol], the Emax at 10 µM is > 75%.

Turning to `CC(C)CS(=O)(=O)N[C@H]1CC[C@@H](CC(C)(C)NC[C@H](O)c2cncc(F)c2)CC1` [Compound 14, N-((cis)-4-(2-(((R)-2-(5-fluoropyridin-3-yl)-2-hydroxyethyl)amino)-2-methylpropyl)cyclohexyl)-2-methylpropane-1-sulfonamide], the Emax at 10 µM was in the range of 50 to 75%. In the case of `CC(C)(C)NCC(O)c1ccncc1O` (stereo not drawn) [Compound 60, 4-(2-(tert-butylamino)-1-hydroxyethyl)pyridin-3-ol], the Emax at 10 µM was > 75%.

Consider `CO[C@H]1CC[C@H](C[C@H]2CC[C@H]([C@H](O)c3ccccc3F)N2)CC1` [Compound 48, (R)-(2-fluorophenyl)((2R,5R)-5-(((trans)-4-methoxycyclo-hexyl)methyl)pyrrolidin-2-yl)-methanol], for which the Emax at 10 µM fell in the range of 50 to 75%. Consider `CC(C)(C[C@H]1CC[C@H](NS(=O)(=O)C2CC2)CC1)NC[C@H](O)c1cccc(F)c1` [Compound 25, N-((trans)-4-(2-(((R)-2-(3-fluorophenyl)-2-hydroxy-ethyl)amino)-2-methyl-propyl)cyclohexyl)cyclo-propanesulfonamide], for which the Emax at 10 µM is > 75%. The same measure for `CC(C)CS(=O)(=O)N[C@H]1CC[C@H](CC(C)(C)NC[C@H](O)c2cncc(F)c2)CC1` [Compound 20, N-((trans)-4-(2-(((R)-2-(5-fluoropyridin-3-yl)-2-hydroxyethyl)amino)-2-methylpropyl)cyclohexyl)-2-methylpropane-1-sulfonamide]: > 75%; for `CC(C)(C[C@H]1CC[C@H](NS(C)(=O)=O)CC1)NC[C@H](O)c1cccc(C#N)n1` [Compound 35, N-((trans)-4-(2-(((S)-2-(6-cyanopyridin-2-yl)-2-hydroxyethyl)amino)-2-methylpropyl)cyclohexyl)-methanesulfonamide]: > 75%; for `CO[C@H]1CC[C@@H](C[C@@H]2CC[C@H]([C@H](O)c3cccc(F)c3F)N2)CC1` [Compound 7, (R)-(2,3-difluorophenyl)-((2R,5S)-5-(((cis)-4-methoxycyclohexyl)methyl)-pyrrolidin-2-yl)methanol]: 50 to 75%.

For the compound `CCC[C@H](C)NC[C@H](O)c1cccc(O)c1` [Compound 68, 3-((R)-1-hydroxy-2-(((S)-pentan-2-yl)amino)ethyl)-phenol], the Emax at 10 µM is > 75%.

In the case of `CC(C)(C[C@H]1CC[C@H](C#N)CC1)NC[C@H](O)c1cccc(F)c1` [Compound 40, (trans)-4-(2-(((R)-2-(3-fluorophenyl)-2-hydroxy-ethyl)amino)-2-methyl-propyl)cyclohexane-1-carbonitrile], the Emax at 10 µM is 50 to 75%. Regarding `CNS(=O)(=O)[C@H]1CC[C@H](CC(C)(C)NC[C@H](O)c2cccc(F)c2)CC1` [Compound 27, (trans)-4-(2-(((R)-2-(3-fluorophenyl)-2-hydroxy-ethyl)amino)-2-methy-propyl)-N-methyl-cyclohexane-1-sulfonamide], the Emax at 10 µM was > 75%. Regarding `CC(C)(C[C@H]1CC[C@H](O)CC1)NC[C@H](O)c1cccc(F)c1` [Compound 52, (trans)-4-(2-(((R)-2-(3-fluorophenyl)-2-hydroxy-ethyl)amino)-2-methyl-propyl)cyclohexan-1-ol], the Emax at 10 µM was > 75%. On to `COCC12CC(C1)[C@H]([C@H](O)c1cccc(F)c1)N2` [Compound 29, (R)-(3-fluorophenyl)((R)-1-(methoxymethyl)-2-aza-bicyclo[2.1.1]hexan-3-yl)-methanol], for which the Emax at 10 µM fell in the range of 50 to 75%. On to `O[C@H](c1cncc(F)c1)C12CCC(COc3ccc(OC(F)(F)F)cc3)(CC1)N2` [Compound 32, (R)-(5-fluoropyridin-3-yl)((1r,4R)-4-((4-(trifluoro-methoxy)phenoxy)methyl)-7-azabicyclo[2.2.1]heptan-1-yl)methanol], for which the Emax at 10 µM is > 75%.
